We go through eleven compounds from patent US20230338340A1, “Methods of Treating Cystic Fibrosis” (The Trustees of Dartmouth College, priority 2020, published 2023).

Format in all cases: binding
In assay [1] the target is T1, CAL PDZ (Homo sapiens, UniProt Q9HD26).
T1 construct: Recombinant CAL PDZ was expressed and purified in E. coli as previously described; made in house; host or cells: E. coli
Put plainly: CALP fluorescence polarization (FP) competition assay, HTS format with dose-response validation. More on the design: Inhibitory activity CALP at 100 μM: unit not given here. Conditions: for IC50: read-out: Inhibitory activity CALP IC50. As to the method:
(§1) CALP and/or Dab2 inhibition assays were performed in biochemical “mix-and-measure” format in order to evaluate the effects on activation and inhibition of CALP and/or Dab2 by the compounds of the disclosure. Brief assay procedure is provided below. Unless otherwise specified, all of the compounds were obtained from commercial sources.
CALP inhibitors were identified by fluorescence polarization (FP) competition assays in high-throughput screening (HTS) format. Recombinant CAL PDZ was expressed and purified in E. coli as previously described (Amacher et al., Acta Cyst. (2011) F67, 600-603), and dialyzed into FP storage buffer (25 mM Tris pH 8.5, 150 mM NaCl, 0.1 mM TCEP, and 0.02% sodium azide). A fluorescent reporter peptide, NPG32, was purchased commercially with the following sequence: F*-[…] (F* denotes a N-terminal fluorescein group coupled via an aminohexanoic acid linker). Initial single-dose HTS was performed with libraries comprising ˜52,000 compounds (FAST Lab—Novartis Institutes for BioMedical Research). First, 25 nL of 5 mM small-molecule was transferred to 1536-well Grenier plates. 3 μL of 3.708 μM CALP in FP buffer (FP storage buffer supplemented with […]) was added, and plates were incubated for 10 min. Next, 3 μL of 60 nM NPG32 (in FP buffer) was added. Final reaction volumes were 6 μL and contained 1.854 μM CALP, 30 nM NPG32, and 20.83 μM small-molecule. […] Plates were incubated for 30 minutes at room temperature and anisotropy was measured (480 nm excitation wavelength and 535 nm emission wavelength). […] Compounds were validated in triplicate using 8-point dilution series in half-log increments with two orthogonal assays: FRET and TMR-based FP assay. For the FRET assay, a cerulean-CALP fusion protein (Cer-CALP) was expressed and purified as previously described (Zhao et al., 2018). A fluorescent reporter peptide, PRC34, was purchased commercially with the following sequence: TMR*-[…] (TMR* denotes a N-terminal tetramethylrhodamine group coupled via an aminohexanoic acid linker). First, 40 nL of compound was transferred to the plates. 5 μL of 16.632 μM Cer-CALP was added, and plates were incubated for 30 min. Next, 5 μL of 16.632 μM PRC34 was added, and plates were incubated for 30 min. Final reaction volumes were 10 μL and contained 8.316 μM CALP, 8.316 μM […], and variable concentrations of small-molecule. Negative controls contained equivalent amounts of DMSO (0.4%), while positive controls contained 100 μM NPG30 (sequence: […]). Plates were incubated for 30 min, and emission at 475 nm and 575 nm was measured following excitation at 430 nm. TMR FP assays were conducted as described for the FITC-based assay with the following exceptions: TMR was used as the reporter peptide, the final CALP concentration was 11.952 μM, and the positive control used was 100 μM NPG30.

Assay [2] addresses T2, Human-Dab2-DH (Homo sapiens, UniProt P98082).
T2 construct: fused on or other part: N-terminal 10xHis tag with a 3C protease site, cleaved off unless otherwise indicated
T2 sequence (P98082 33-178 limits assumed): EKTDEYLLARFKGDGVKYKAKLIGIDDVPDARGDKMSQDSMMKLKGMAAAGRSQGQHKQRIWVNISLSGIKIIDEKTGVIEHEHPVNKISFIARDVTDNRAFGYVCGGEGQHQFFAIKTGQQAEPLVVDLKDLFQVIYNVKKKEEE
Put plainly: Dab2 FP competition assay via HTS. The settings on record: read-out: Inhibitory activity Dab2 IC50. The method, then:
as §1
Dab-2 inhibitors were also identified by FP competition assays via HTS. Human-Dab2-DH, residues 31-191 (Uniprot: P98082), and trDab2-DH (residues 33-178) was subcloned into the pET16b vector via PCR utilizing the restriction enzyme sites of Xhol and BamHI. The construct was designed with a 3C protease cleavage site directly upstream and in-frame with the protein coding sequence. DNA was sequence verified. (0.1 mM) IPTG was used to induce protein expression in E. coli BL21(DE3)RIL cells, after reaching an O.D. of […]. […] Followed by 3C cleavage of the 10×His tag (unless otherwise indicated), and a second nickel affinity column to remove the 3C protease and excess tag. Dab2-DH was dialyzed into FP storage buffer (25 mM Tris pH 8.0, 150 mM NaCl, 0.1 mM TCEP, and 0.02% sodium azide). Fluorescent reporter peptides, TIVR*STA02 (TMR*-[…]) and TMR*STA03 (TMR*-[…]), were purchased commercially with the following sequence where TMR* denotes a N-terminal tetramethylrhodamine group coupled via an aminohexanoic acid linker. An unlabled positive control peptide STA02 ([…]) was also purchased commercially. Inhibitors of Dab2-DH were identified from a variety of sources with various protocols outlined below.
For screens conducted at the Novartis Institutes for BioMedical Research FAST Lab, single-dose HTS assays were performed with libraries comprising ˜52,000 compounds at 20 μM doses. Experiments were conducted as described for screens at the University of Pittsburgh Lab and Drug Discovery Institute, except that Dab2-DH, not trDab2-DH, was used as the protein source.
For screens conducted at the Broad Institute, compound transfers were done using a 384-well pin tool equipped with 100 nL hydrophobic surface coated pins. 100 nL of DMSO (negative control), STA02 (positive control), or library compounds were dispensed into 20 μL of protein (200 nM) and reporter (F*-STA02, 30 nM) mixture with 0.1 mg/ml mouse IgG and 0.5 mM Thesit. Final concentrations in the mixture were DMSO ([…]), STA02 (20 μM), and compounds (18 μM). Plates were incubated for 35-45 minutes before measuring polarization. Compounds were tested in duplicates on two separate plates. Positive and negative controls were included in each individual plate.
For experiments conducted at the University of Pittsburgh Lab and Drug Discovery Institute, single-dose HTS assays were performed with a library containing ˜220,000 compounds. On the day of screening, a master mix of equal parts trDab2-DH (900 nM) and TMP-STA03 (90 nM) was prepared. Compound plates containing assay ready 2 μL aliquots of a 1 mM stock solution in DMSO were thawed, reconstituted in FP buffer to a concentration of 30 μM in 3% DMSO, and five μL transferred to low volume assay plates using a Perkin Elmer MDT. Ten μL of master mix were added by a Microflo bulk liquid dispenser (Biotek, Winooski, VT) and processed as described in the general protocol above. Each plate contained 32 wells of positive (Dab2-DH+probe+DMSO) and negative (Dab2-DH+probe +10 μM STA03) controls. Plates were read at 1.5-h and 4-h on the Envision multilabel reader.

Assay [3] concerns the target T3, CALP (Homo sapiens, UniProt Q9HD26).
T3 construct: Recombinant CAL PDZ was expressed and purified in E. coli as previously described; made in house; host or cells: E. coli
The assay can be described thus: Dose-dependent CALP inhibition by FP competition assay, large-volume format. The settings on record: one experimental replicate. The method, then: The following compounds of Table 2 were obtained from commercial sources, and evaluated in fluorescence polarization (FP) competition assay.
Specifically, dose-dependent CALP inhibition of compounds of examples 36-41 was assessed by FP competition assays. Experiments were conducted similarly to HTS assays described above but in large-volume format. Briefly, CALP was expressed and purified as previously described (Amacher et al., 2011). A fluorescently labeled peptide, NPG32, was commercially obtained (sequence: F*-[…] where F* denotes a N-terminal fluorescein group coupled via an aminohexanoic acid linker). CALP was dialyzed into FP storage buffer (25 mM Tris pH 8.5, 150 mM NaCl, 0.1 mM TCEP, and 0.02% sodium azide). CALP was diluted into FP buffer (FP storage buffer supplemented with 0.1 mg/mL IgG and 30 μM thesit) containing 31.58 nM NPG32. The protein/reporter solution was aliquoted into 384-well plates with each well containing 19 μL of the mixture. Twelve-point titrations (2-fold serial dilutions) of the test compounds were prepared in 25% DMSO. To each well, 1 μL of compound was added. […] Plates were incubated at room temperature for 30 min before anisotropy was measured. […] Except for Examples 37-38, the reported potency for all compounds was calculated by averaging three experimental replicates.

Non-standard residues stand in square brackets, D forms with d. Residues, ends and D or L forms follow the SMILES beside them. Tle = CC(C)(C)[C@H](N)C(=O)O

For `O=C1c2c(O)c(Cl)cc3c2[C@@]2(Oc4cc(Cl)c(O)c5c4[C@]3(O2)[C@@H]2O[C@@H]2C5=O)[C@@H]2O[C@H]12` [Example 3, (1aR,1bS,5aS,6aR,6bS,11aS)-3,9-dichloro-4,10-dihydroxy-1a,5a,6a,11a-tetrahydro-5H,11H-1b,6b-epoxyoxireno[2′,3′:2,3]naphtho[1,8-bc]oxireno[2′,3′:2,3]naphtho[1,8-ef]oxepine-5,11-dione], in assay [1], the “Inhibitory activity CALP at 100 μM” value was −80.85 and the IC50 came to 25.3 µM. Moreover, the IC50 in assay [2] amounted to 0.26 µM.

`COc1cc(O)c2c(c1)oc(=O)c1c3cc(O)c(O)cc3oc21` [Example 7, 1,8,9-trihydroxy-3-methoxy-6H-benzofuro[3,2-c]chromen-6-one]: in assay [1], the “Inhibitory activity CALP at 100 μM” value was −74.42 and the IC50 amounted to 1.24 µM.

As to `O=C(O[C@@H]1Cc2c(O)cc(O)cc2O[C@@H]1c1cc(=O)c(O)c2c(O)c(O)cc([C@H]3Oc4cc(O)cc(O)c4C[C@H]3O)c2c1)c1cc(O)c(O)c(O)c1` [Example 1, (2R,3R)-5,7-dihydroxy-2-(3,4,5-trihydroxy-6-oxo-1-((2R,3R)-3,5,7-trihydroxychroman-2-yl)-6H-benzo[7]annulen-8-yl)chroman-3-yl 3,4,5-trihydroxybenzoate], in assay [1], the “Inhibitory activity CALP at 100 μM” value is recorded as −65.53 and the IC50 worked out at 11.3 µM. In assay [2], the IC50 was determined as 2.45 µM.

On to `O=c1[nH]c2ccc(S(=O)(=O)Nc3ccc(O)cc3)cc2[nH]1` [Example 38, N-(4-hydroxyphenyl)-2-oxo-2,3-dihydro-1H-benzo[d]imidazole-5-sulfonamide], for which, in assay [3], the “CALP binding in FP competition” value is “absence of binding”.

For `CC1COC2C3=C(C(=O)C=CC3=O)C3OC(=O)C4CCC5C1CCC25C43` (stereo not drawn) [Example 2, 6-methyl-2a,2a^1,3,4,4a,5,6,7,8a,12b-decahydro-2H-4a^1,5-ethanofuro[4′,3′,2′:4,10]anthra[9,1-bc]oxepine-2,9,12-trione], the “Inhibitory activity CALP at 100 μM” value in assay [1] is −67.12. Besides, the IC50 in assay [1] came out at 1.3 µM; in assay [2], 0.22 µM.

With `CC(C)[C@H](NC(=O)[C@H](CCC(N)=O)NC(=O)[C@H](Cc1c[nH]c2ccccc12)NC(=O)[C@H](CCCNC(=N)N)NC(=O)[C@H](CO)NC(=O)[C@H](CC(N)=O)NC(=O)[C@H](C)N)C(=O)N[C@H](C(=O)N[C@@H](CCCNC(=N)N)C(=O)N[C@H](C(=O)O)C(C)(C)C)[C@@H](C)O` [NPG35, reference compound] (H-ANSRWQVTR[Tle]-OH), the dissociation constant (Kd) in assay [1] (unlabeled peptide used as positive control) was at most 1 µM.

With `Oc1ccc(N2CCN(c3ncccn3)CC2)cc1` [Example 5, 4-(4-(pyrimidin-2-yl)piperazin-1-yl)phenol], in assay [1], the “Inhibitory activity CALP at 100 μM” value was −46.33 and the IC50 stood at 40.5 µM. Further, the IC50 in assay [2] was determined as 20.6 µM.

As for `Cc1c(O)c(O)c(O)c(C=O)c1C=O` [Example 4, 3,4,5-trihydroxy-6-methylphthalaldehyde], in assay [1], the “Inhibitory activity CALP at 100 μM” value was −94.09. Further, the IC50 in assay [1] was 10.2 µM; in assay [2] it was 3.42 µM.

As to `O=c1[nH]c2ccc(S(=O)(=O)Nc3cccc4ccccc34)cc2[nH]1` [Example 37, N-(naphthalen-1-yl)-2-oxo-2,3-dihydro-1H-benzo[d]imidazole-5-sulfonamide], in assay [3], the “CALP binding in FP competition” value was “absence of binding”.

`C/C1=C/CC(O)/C=C\C(C)C(O)C(C)/C=C(\C)C(=O)c2c(O)c(C)cc3c2C(=O)C(Cl)=C(NC(=O)/C=C/C=C/C=C/C(C)C(O)CC1=O)C3=O` (stereo not drawn) [Example 15, 2-chloro-13,19,23,28-tetrahydroxy-12,16,22,24,26,29-hexamethyl-13,14,19,22,23,24-hexahydro-1H-3,31-methanobenzo[e][1]azacyclononacosine-1,5,15,27,32(4H,12H,18H)-pentaone]: in assay [1], the “Inhibitory activity CALP at 100 μM” value is −54.29 and the IC50 is 4.71 µM.

With `CC[C@@]1(O)C[C@H](O[C@H]2C[C@H](N(C)C)[C@H](O)[C@H](C)O2)c2c(cc3c(c2O)C(=O)c2c(O)ccc(O)c2C3=O)[C@H]1C(=O)OC` [Example 14, methyl (1R,2R,4S)-4-(((2R,4S,5S,6S)-4-(dimethylamino)-5-hydroxy-6-methyltetrahydro-2H-pyran-2-yl)oxy)-2-ethyl-2,5,7,10-tetrahydroxy-6,11-dioxo-1,2,3,4,6,11-hexahydrotetracene-1-carboxylate], in assay [1], the “Inhibitory activity CALP at 100 μM” value was −67.06 and the IC50 was 0.73 µM.
